Measurements: patent US20220304942A1, “TREATMENT OF OBESITY AND RELATED CONDITIONS” (University of Greenwich, priority 2019, published 2022)

Experiments:
[1] = system: male, wild-type C57BL/6 mice; experiment: Short term (four-week) dosing of 2,3-butanediol in drinking water to wild-type mice; format: in vivo; conditions: 28 days
Protocol: 2,3-butanediol was then administered over a four-week dosing period to wild-type mice. The 2,3-butanediol was delivered to male, wild-type C57BL/6 mice in drinking water, from 13 to 17 weeks of age. Dose delivery estimation was based on mouse average water consumption. Groups of male mice were either untreated, treated with 60, 250 or 600 mg/kg 2,3-butanediol in their drinking water. Water was changed twice weekly. Weights of mice and food intake were recorded. Urine was collected on day 0 (age 13 weeks, pre-treatment) and at 28 days post-treatment (mice aged 17 weeks) and analysed for 2,3-butanediol.
Blood was collected on day 0 (age 13 weeks) and at 28 days post-treatment (mice aged 17 weeks). Plasma was isolated and analysed. At termination of experiment, epidydimal fat pads (EWAT) were weighed and expressed as EWAT:Body weight ratios, […]

[2] = system: Sprague-Dawley rat adipocytes; conditions: cited from earlier work
WT mice = experiment: Longer term dosing of 2,3-butanediol to WT mice, with washout cohort; format: in vivo
Protocol: Male mice were dosed with 200 mg/kg/day 2,3-butanediol from age 8 weeks to age 29 weeks. Mice were housed 4 to a cage. […], treatment was removed from one cohort, called the ‘washout 6 weeks’. Treatment continued in one cohort, called ‘treatment throughout’. Urine collected 1 week following removal of 2,3-butanediol confirmed the absence of 2,3-butanediol in the washout cohorts. At the end of the experiment blood was collected and plasma isolated and analysed. Mice were culled, and final body weights and epidydimal fat deposits recorded.

[3] = 60, 250 or 600 mg/kg in drinking water
[4] = 250 and 600 mg/kg/day doses in drinking water
[5] = 200 mg/kg/day from age 8 weeks to age 29 weeks, male mice
[6] = 200 mg/kg/day from age 8 weeks, treatment removed at age 22 weeks, 6 week washout on water alone

CC(O)C(C)O (stereo not drawn) [2,3-butanediol]
plasma cholesterol ([1]; 250 mg/kg/day dose in drinking water): significantly reduced | Epididymal white adipose tissue (EWAT) to body weight ratios ([1]; 250 mg/kg/day dose in drinking water, mice aged 13 to 17 weeks): significantly reduced | plasma alanine aminotransferase [1, 3]: No changes | plasma alkaline phosphatase [1, 3]: No changes | plasma aspartate aminotransferase [1, 3]: No changes | Plasma free fatty acids [1, 4]: significantly reduced | Plasma lactate dehydrogenase [1, 4]: significantly reduced | Plasma triglycerides [1, 4]: significantly reduced | 14C-glucose incorporation into triglyceride glycerol ([2]; at higher concentrations): inhibitor | 14C-glucose incorporation into triglyceride fatty acid [2]: potent inhibitor | fat (EWAT/body weight) (WT mice; [5]): significant reductions | plasma cholesterol (WT mice; [5]): significant reductions | treatment effect on fat (EWAT/body weight) after washout (WT mice; [6]): persistent | treatment effect on plasma cholesterol after washout (WT mice; [6]): persistent | 2,3-butanediol in urine after removal of treatment (WT mice; urine collected 1 week following removal of 2,3-butanediol, washout cohorts): absence
